{
  "source": "patent US6235753A",
  "about": "“Inhibitors of the production of S-CD23 and the secretion of TNF” (priority 1996, dated 2001)",
  "key": {"TNFα": {"tested_on": "TNFα", "assay": "Inhibition of release of TNFα from human monocytes stimulated by LPS (TNF processing inhibition)", "assay_type": "cell-based", "settings": "Monocyte, read-out: TNF processing inhibition"}, "[1]": {"target": "T1, human recombinant collagenase (Homo sapiens, UniProt P03956)", "T1 construct": "made in house; host or cells: E. coli", "T1 sequence (P03956 100-469)": "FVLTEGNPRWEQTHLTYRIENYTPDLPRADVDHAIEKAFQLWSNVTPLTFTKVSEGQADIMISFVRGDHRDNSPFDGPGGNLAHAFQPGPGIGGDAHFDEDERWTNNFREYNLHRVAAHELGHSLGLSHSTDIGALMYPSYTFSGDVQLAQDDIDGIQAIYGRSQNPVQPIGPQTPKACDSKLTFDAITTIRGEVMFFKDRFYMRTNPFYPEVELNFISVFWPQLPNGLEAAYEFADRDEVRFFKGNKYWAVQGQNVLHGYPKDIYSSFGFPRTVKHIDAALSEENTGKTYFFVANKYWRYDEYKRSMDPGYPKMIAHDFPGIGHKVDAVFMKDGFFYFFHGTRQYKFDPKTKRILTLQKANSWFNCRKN", "assay": "Collagenase Inhibition Assay", "assay_type": "biochemical"}, "CD23 proteinase": {"target": "T2, CD23 proteinase (Homo sapiens, UniProt O14672)", "T2 construct": "Plasma membranes from RPMI 8866 cells, a human Epstein-Barr virus transformed B-cell line; endogenous in cells; host or cells: RPMI 8866 (human EBV-transformed B-cell line), enriched plasma membranes", "T2 sequence (O14672 214-748)": "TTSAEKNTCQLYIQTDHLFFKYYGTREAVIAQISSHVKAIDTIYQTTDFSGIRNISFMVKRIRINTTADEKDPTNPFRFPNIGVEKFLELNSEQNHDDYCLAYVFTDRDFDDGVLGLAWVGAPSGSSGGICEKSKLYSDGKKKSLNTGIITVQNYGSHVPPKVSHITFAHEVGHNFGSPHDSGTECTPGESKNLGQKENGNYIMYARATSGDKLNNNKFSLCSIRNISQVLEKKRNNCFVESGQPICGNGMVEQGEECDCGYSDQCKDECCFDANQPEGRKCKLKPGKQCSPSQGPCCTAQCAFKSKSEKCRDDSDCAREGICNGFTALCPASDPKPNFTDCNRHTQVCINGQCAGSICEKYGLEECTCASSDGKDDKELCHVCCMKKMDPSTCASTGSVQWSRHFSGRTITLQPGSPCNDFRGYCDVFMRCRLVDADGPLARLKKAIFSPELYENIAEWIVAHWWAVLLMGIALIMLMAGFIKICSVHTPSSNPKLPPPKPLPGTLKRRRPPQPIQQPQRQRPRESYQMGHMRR", "assay": "RPMI 8866 cell membrane CD23 cleavage activity assay (CD23 proteinase inhibition)", "assay_type": "biochemical", "settings": "RPMI 8866 cell membranes"}},
  "note": "Like-named read-outs stand apart in the source and are kept apart here.",
  "data": [
    {"smiles": "CNC(=O)[C@H](Cc1ccccc1)NC(=O)[C@H](CC(C)C)[C@H](CSc1cccs1)C(=O)NO", "note": "[Comparative Example, reference compound]", "values": [
      {"measurement": "inhibition at 1 µM", "setting": "TNFα; Homo sapiens", "value": "76.4 ± 0.9", "unit": "%"}
    ]},
    {"smiles": "CNC(=O)[C@@H](NC(=O)[C@H](Cc1ccc2ccccc2c1)[C@H](O)C(=O)NO)C(C)(C)C", "note": "[Example 1, N'-[3S-Hydroxy-4-(N-hydroxyamino)-2R-(2-naphthylmethyl)succinyl]-S-tert-leucine-N-methylamide]", "values": [
      {"measurement": "IC50", "setting": "[1]", "value": "> 10", "unit": "µM"},
      {"measurement": "inhibition at 1 µM", "setting": "CD23 proteinase; at 1 uM", "value": 88, "unit": "%"}
    ]},
    {"smiles": "CNC(=O)[C@H](Cc1ccccc1)NC(=O)[C@H](Cc1ccc2ccccc2c1)[C@H](O)C(=O)NO", "note": "[Example 2, N'-[3S-Hydroxy-4-(N-hydroxyamino)-2R-(2-naphthylmethyl)succinyl]-S-phenylalanine-N-methylamide]", "values": [
      {"measurement": "IC50", "setting": "[1]; 37° C., 18 h, acetylated 3H type 1 bovine collagen, read-out: Collagenase inhibition IC50", "value": 8.6, "unit": "µM"},
      {"measurement": "inhibition at 2 µM", "setting": "CD23 proteinase; at 2 uM", "value": 90, "unit": "%"},
      {"measurement": "inhibition at 1 µM", "setting": "TNFα; at 1 uM, human monocytes, LPS 200 ng/ml, 18-20 hrs", "value": 45, "unit": "%"}
    ]}
  ]
}
